15 molecules from patent US5302611A, “Oxindole alkaloids having properties stimulating the immunologic system & preparation containing the same” (Keplinger; Klaus, priority 1980, dated 1994) can be followed below.

Experiment [1] relates to neutrophil granulocytes (PMNL). Nature of the experiment: Granulocytic test modified after BRANDT (phagocytosis of yeast particles). Format: cell-based, human. The text has this:
1. […] They represent about 60-70% of all leucocytes in the human blood. The phagocytosis effect of all these granulocytes can be measured in vitro according to a method developed by BRAND (Scand. J. Haematol. Suppl. 2, 1967) and modified by TYMPNER (Munich Med. Weekly 8, 251, 1978).
A granulocytic fraction is taken from the blood of healthy probands (PMNL--abbreviation of polymorphonuclearleucocytes)
This PMNL-fraction mainly consists of neutrophil granulocytes and few eosinophil and basophil granulocytes as well as of lymphocytes, monocytes and thrombocytes. After addition of a defined amount of yeast cells (Saccharomyces cerevisiae) and the substance to be tested incubation is carried out for 10 minutes at 37° C., the suspension is spread on an object carrier and incubated at room temperature for further 35 minutes. Then the spreads are coloured and microscopically evaluated. 100 PMNL-cells are selected per object carrier, and it is determined how many yeast particles of the individual cells have been phagocytised. The phagocytosis index indicates the average number of phagocytised yeast particles.
15 ml of heparinised venous blood of clinically healthy adults was diluted with 1.5% of dextran T 500 (Pharmacia) 2:1 and allowed to stand at room temperature for 30 minutes. The supernatant containing leucocytes was injected into a sterile plastic tube and centrifugated for 7 minutes at 500 r.p.m. The granulocytes in the deposit were washed twice with 5 ml of PPM I-buffer in each case. Then the granulocytes were suspended in about 5 ml of buffer and adjusted in the Neubauer's chamber to a concentration of 5×10^6 cells/ml.
Yeast suspended in 0.9% of NaCl was heated to 100° C., three times filtered through gaze and adjusted to 3-5×10^7 particles/ml.
The serum of 5 clinically healthy adults was mixed and frozen in portions of 5 ml. For the test dilution was carried out with 0.9% of NaCl 1:10.
The test was carried out as follows: 0.2 ml of substance dissolved in 0.9% of NaCl and 0.2 ml of 0.9% NaCl, as a control substance, were pipetted to 0.2 ml, each, of pool serum, granulocyte- and yeast suspension and first incubated for 10 minutes at 37° C. Then 0.5 ml of each preparation were applied to an object carrier and incubated in a humid chamber at room temperature for further 35 minutes. Granulocytes deposited, the supernatant was carefully washed with 0.9% of NaCl, and the object carrier was dried with a dryer.
100 granulocytes were counted out per object carrier, and it was determined how many yeast particles of the individual cells had been phagocytised. The phagocytosis index (PJ) indicates the average number of yeast particles per granulocyte. The increase (S) of the phagocytosis activity in the blank value was calculated according to: [formula]

For experiment [2], the system named is isolated polymorphonuclear leucocytes (PMNL). Kind of experiment: Chemiluminescence test (CL), PMNL method (isolated granulocytes). Conditions: CL method not stated. It is filed as cell-based, human. On the procedure:
2. Chemiluminescence test (CL)
The low light yield of such CL-reactions of phagocytised cells is increased in the in-vitro-experiment by the addition of substances which are oxydated by activated oxygen and thus produce light of a certain wavelength, which can be physically measured. Suitable substrates are luminole (5-amino-2,3-dihydro-1,4-phthalazindione) and lucigenine (10,10'-dimethyl-9,9'-biacri-diniumdinitrate), which increase the CL-response by 10^3 times.
All tests were carried out in 6-channel-Biolumat LB 9505 of Berthold, connected to an Apple-computer with a CL-evaluation program of Berthold.
Lucigenine was chosen for light amplification which emits photons at a narrow wavelength distribution of about 510 nm and thus almost lies in the optimum of the photo-multiplier sensitivity.
The pH-value of the measuring solution should be between 7.1 and 7.4, which is obtained by the addition of veronal-buffered salt solution. The test substances were dissolved in phosphate-buffered salt solution, (PBS-buffer). Both buffer systems contain 0.1% of glucose, because the "respiratory-burst"-reaction is connected with an increase of the glucose-metabolism.
Opsonised zymosan was used for phagocyte-activation. The measurement of the CL of isolated granulocytes was carried out with native blood of isolated polymorphonuclear leucocytes (PMNL), which had been adjusted with PBS-Puffer to 10^6 […].
The test substances were first together with the isolated granulocytes or with the whole blood incubated at room temperature for 10 minutes and then in biclumate for 10 minutes at 37° C. After addition of the opsonised zymosan, measurement in the biolumat at 37° C. started. […] A curve which was typical for each substance was obtained. The integrated surfaces are directly proportional to the intensity of the CL-response.
For determining the stimulation of the "respiratory-burst" of granulocytes,which had taken place, the same formula as for the granulocytic test was used.
20 ml of native blood were mixed with 30 mg EDTA. 15 ml of this blood were mixed with 7 ml of dextran in a syringe and allowed to stand at room temperature for 30 minutes. The leucocyte-containing supernatant was transfered into a sterile centrifugal tube and centrifugated at 1000 r.p.m. for 10 minutes. The deposit consisted of leucocytes and residual portions of erythrocytes, which can influence measurement by their colour quench. The residual erythrocytes were removed by hypotonic lyis. For this purpose, the deposit was suspended in 0.25% of NaCl-solution and agitated on the whirlmix for 20 seconds. Then 20 ml of 1.6% NaCl-solution were admixed and agitated again. After centrifugation at 2000 r.p.m. for 10 minutes, the supernatant was sucked off and the whole process was repeated twice. Subsequently, the deposit was suspended in 2 ml of PBS-buffer and diluted 1:10 with Turcks-solution. It was adjusted in the Neubauer's chamber with PBS-buffer to 10^6 -cells/ml.
630 μl of veronal-buffered salt solution
100 μl of lucigenine-solution
200 μl of substance dissolved in PBS and PBS as control
After preincubation at room temperature for 10 minutes and subsequent incubation for 10 minutes at 37° C. in 6-channel-Biolumat, 40 μl of opsonised zymosan were admixed under through stirring and measurement was started. Measuring was stopped after 60 minutes.
The CL-response of the samples was stored by a computer over the measuring period, and after measurement illustrated in the form of a curve. By integration of the surfaces, the intensity of the CL-response of the respective sample was obtained in cpm.
The increase S of the CL-response by a test substance was calculated according to [formula]

[3] abbreviates: up to a concentration of 10^-4 %.

Like-named read-outs stand apart in the source and are kept apart here.

For the molecule `C1CCN2C[C@@H]3C[C@@H](CN4CCCC[C@@H]34)[C@H]2C1` [sparteine, reference compound], the “effect in the granulocytic test” value in experiment [1] (setting [3]) is on record as “did not show any effect”.
`CC[C@@]1(O)C(=O)OCc2c1cc1n(c2=O)Cc2cc3ccccc3nc2-1` [camotothecine, reference compound]: the “effect in the granulocytic test” value in experiment [1] (up to dilutions of 10^-6 %) is reported as “no effects have been found”.
As to `COC(=O)C1=COC(C)C2CN3CCC4(C(=O)Nc5ccccc54)C3CC12` (single isomer, unassigned; isomer a) [Isomitraphylline, normal-isomitraphylline, isomer A], in experiment [1], the “activity in the granulocytic test” value is on record as “active”. The percental phagocytosis increase in experiment [1] (concentration 10^-2) is on record as 16.5%; in experiment [1] (concentration 10^-3) it was 27.0%; in experiment [1] (concentration 10^-4) it was 27.0%; in experiment [1] (concentration 10^-5), 19.4%; in experiment [1] (concentration 10^-6) it was 5.7%. Further, the “percental increase of the CL-response” value in experiment [2] (concentration 10^-3 %) is reported as 15.4%; in experiment [2] (concentration 10^-4 %), 15.7%; in experiment [2] (concentration 10^-5 %), 36.1%; in experiment [2] (concentration 10^-6 %), 46.7%; in experiment [2] (concentration 10^-7 %) it was 18.6%.
Consider `COC(=O)C1=COC(C)C2CN3CCC4(C(=O)Nc5ccccc54)C3CC12` (single isomer, unassigned; isomer b) [Pteropodine, allo-pteropodine, isomer B], for which, in experiment [1], the “activity in the granulocytic test” value is “active”. Also, the percental phagocytosis increase in experiment [1] (concentration 10^-2) came out at 11.2%; in experiment [1] (concentration 10^-3), 21.7%; in experiment [1] (concentration 10^-4), 26.1%; in experiment [1] (concentration 10^-5), 23.0%. Further, the “percental increase of the CL-response” value in experiment [2] (concentration 10^-3 %, listed as Pteropidine) is listed as 10.6%; in experiment [2] (concentration 10^-4 %, listed as Pteropidine), 10.0%; in experiment [2] (concentration 10^-5 %, listed as Pteropidine) it was 23.7%; in experiment [2] (concentration 10^-6 %, listed as Pteropidine), 15.4%.
As to thalifabine [reference compound], the “effect in the granulocytic test” value in experiment [1] (setting [3]) is “negative”.
For the molecule `COC(=O)C1=COC(C)C2CN3CCC4(C(=O)Nc5ccccc54)C3CC12` (single isomer, unassigned; isomer a) [Isopteropodine, allo-isopteropodine, isomer A], the “activity in the granulocytic test” value in experiment [1] is on record as “active”. In addition, the percental phagocytosis increase is given as 23.4% in experiment [1] (concentration 10^-2); 48.7% in experiment [1] (concentration 10^-3); 55.9% in experiment [1] (concentration 10^-4); 38.2% in experiment [1] (concentration 10^-5); 28.2% in experiment [1] (concentration 10^-6); 13.6% in experiment [1] (concentration 10^-7). In addition, the activation at 1e-08 % in experiment [2] (Homo sapiens, PMNL, concentration 10^-8 %, read-out: percental increase of the CL-response) is 31.2%. Besides, the “percental increase of the CL-response” value in experiment [2] (concentration 10^-3 %) is given as 67.2%; in experiment [2] (concentration 10^-4 %), 66.0%; in experiment [2] (concentration 10^-5 %), 55.7%; in experiment [2] (concentration 10^-6 %), 68.1%; in experiment [2] (concentration 10^-7 %), 55.3%.
Consider `COc1ccc2cc3[n+](cc2c1OC)CCc1cc2c(cc1-3)OCO2` [berberine, reference compound], for which, in experiment [1] (setting [3]), the “effect in the granulocytic test” value was “inactive”.
Turning to `COC(=O)C1=COC(C)C2CN3CCC4(C(=O)Nc5ccccc54)C3CC12` (single isomer, unassigned; isomer b) [Mitraphylline, normal-mitraphylline, isomer B], the “activity in the granulocytic test” value in experiment [1] was “not active”.
In the case of `COc1cc2c(cc1OC)[C@H](Cc1ccc(Oc3c4c(cc(OC)c3OC)-c3c(OC)c(OC)c(OC)c5c3[C@H](C4)N(C)CC5)cc1)N(C)CC2` [thalifaberine, reference compound], the “effect in the granulocytic test” value in experiment [1] (setting [3]) was “negative”.
On the same count and under the same terms, the same measure for huangshanine [reference compound]: “negative”.
On to `C=C[C@]12CN(C)[C@@H]3[C@H]4CO[C@H](C[C@H]41)[C@]1(C(=O)Nc4ccccc41)[C@@H]32` [Gelsemine, gelsemine, reference compound], for which the percental phagocytosis increase is 22.1% in experiment [1] (concentration 10^-2), 40.4% in experiment [1] (concentration 10^-3), 33.7% in experiment [1] (concentration 10^-4) and 8.2% in experiment [1] (concentration 10^-5).
In the case of `CCC1CN2CCC3(C(=O)Nc4ccccc43)C2CC1C(=COC)C(=O)OC` (single isomer, unassigned; isomer a) [Isorhynchophylline, normal-isorhynchophylline, isomer A], the “activity in the granulocytic test” value in experiment [1] is “active”. In addition, the percental phagocytosis increase in experiment [1] (concentration 10^-2) is given as 10.8%; in experiment [1] (concentration 10^-3), 25.2%; in experiment [1] (concentration 10^-4), 27.3%; in experiment [1] (concentration 10^-5), 16.1%; in experiment [1] (concentration 10^-6) it was 8.8%.
Turning to `O=c1cccc2n1C[C@@H]1CNC[C@H]2C1` [cytisine, reference compound], in experiment [1], the “effect in the granulocytic test” value was “did not show any effect”.
`COC(=O)C1=COC(C)C2CN3CCC4(C(=O)Nc5ccccc54)C3CC12` (centres unmarked) [Speciophylline, speciophylline]: the percental phagocytosis increase was 10.5% in experiment [1] (concentration 10^-2), 18.5% in experiment [1] (concentration 10^-3), 26.0% in experiment [1] (concentration 10^-4) and 35.3% in experiment [1] (concentration 10^-5).
With `CCC1CN2CCC3(C(=O)Nc4ccccc43)C2CC1C(=COC)C(=O)OC` (single isomer, unassigned; isomer b) [Rhynchophylline, normal-rhynchophyllin, isomer B], in experiment [1], the “activity in the granulocytic test” value is on record as “not active”.
